The target of one data set is T1, hERG potassium channel (Homo sapiens, UniProt Q12809).
T1 construct: purchased MDS Pharma Services Taiwan
As to the kind of experiment: Radioligand binding panel (Table S1). As to conditions: 10 μM T1-11, n 2.

The target of data set [1] is T2, N-Formyl Peptide Receptor, FPR1 (Homo sapiens, UniProt P21462).
T2 construct: purchased MDS Pharma Services Taiwan
As to the kind of experiment: Radioligand binding panel (Table S1). As to conditions: 10 μM T1-11, n 2.

Another data set deals with T3, Lipoxygenase 5-LO (Homo sapiens, UniProt P09917).
T3 construct: purchased MDS Pharma Services Taiwan
T3 sequence (P09917 whole entry): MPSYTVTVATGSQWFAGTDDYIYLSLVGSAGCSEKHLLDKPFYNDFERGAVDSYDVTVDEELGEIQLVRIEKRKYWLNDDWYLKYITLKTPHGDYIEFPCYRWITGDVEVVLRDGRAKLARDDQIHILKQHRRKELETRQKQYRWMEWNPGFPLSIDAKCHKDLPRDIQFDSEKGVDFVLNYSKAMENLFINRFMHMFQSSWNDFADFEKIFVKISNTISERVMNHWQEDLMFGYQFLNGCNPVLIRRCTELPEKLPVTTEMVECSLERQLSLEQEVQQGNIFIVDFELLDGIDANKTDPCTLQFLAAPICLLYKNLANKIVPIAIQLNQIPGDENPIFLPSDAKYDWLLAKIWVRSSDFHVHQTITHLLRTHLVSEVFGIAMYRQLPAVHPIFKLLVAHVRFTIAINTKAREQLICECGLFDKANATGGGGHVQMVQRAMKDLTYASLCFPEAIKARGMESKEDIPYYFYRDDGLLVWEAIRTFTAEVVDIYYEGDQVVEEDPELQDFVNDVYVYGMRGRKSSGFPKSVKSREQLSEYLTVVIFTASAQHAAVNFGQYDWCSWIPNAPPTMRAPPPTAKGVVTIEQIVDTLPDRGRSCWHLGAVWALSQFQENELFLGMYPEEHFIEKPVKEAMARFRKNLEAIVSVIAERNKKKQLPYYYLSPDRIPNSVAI
As to the kind of experiment: Radioligand binding panel (Table S1). Particulars: 10 μM T1-11, n 2.

Data set [2] deals with T4, G Protein-Coupled Receptor, GPR103 (Homo sapiens, UniProt Q96P65).
T4 construct: purchased MDS Pharma Services Taiwan
Nature of the data set: Radioligand binding panel (Table S1). As to conditions: 10 μM T1-11, n 2.

For a further data set, the target named is T5, Neuromedin U NMU2 (Homo sapiens, UniProt Q9GZQ4).
T5 construct: purchased MDS Pharma Services Taiwan
T5 sequence (Q9GZQ4 whole entry): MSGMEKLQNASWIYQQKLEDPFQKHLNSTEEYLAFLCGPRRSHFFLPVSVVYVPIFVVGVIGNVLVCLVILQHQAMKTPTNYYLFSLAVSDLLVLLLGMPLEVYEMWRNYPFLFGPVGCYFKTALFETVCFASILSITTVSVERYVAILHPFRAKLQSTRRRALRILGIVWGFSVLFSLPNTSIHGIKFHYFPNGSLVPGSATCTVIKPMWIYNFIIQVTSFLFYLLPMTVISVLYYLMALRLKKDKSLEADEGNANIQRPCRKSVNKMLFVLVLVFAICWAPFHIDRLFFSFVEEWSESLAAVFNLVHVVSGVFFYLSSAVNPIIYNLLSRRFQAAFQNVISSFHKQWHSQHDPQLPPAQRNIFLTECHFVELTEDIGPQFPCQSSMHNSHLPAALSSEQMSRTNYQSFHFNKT
Nature of the data set: Radioligand binding panel (Table S1). As to conditions: 10 μM T1-11, n 2.

Data set [3] has as its system Platelet-Derived Growth Factor (PDGF). As to the kind of experiment: Radioligand binding panel (Table S1). More on the design: species or system mouse. As to conditions: 10 μM T1-11, n 2.
The target in another data set is T6, Somatostatin sst4 (Homo sapiens, UniProt P31391).
T6 construct: purchased MDS Pharma Services Taiwan
T6 sequence (P31391 whole entry): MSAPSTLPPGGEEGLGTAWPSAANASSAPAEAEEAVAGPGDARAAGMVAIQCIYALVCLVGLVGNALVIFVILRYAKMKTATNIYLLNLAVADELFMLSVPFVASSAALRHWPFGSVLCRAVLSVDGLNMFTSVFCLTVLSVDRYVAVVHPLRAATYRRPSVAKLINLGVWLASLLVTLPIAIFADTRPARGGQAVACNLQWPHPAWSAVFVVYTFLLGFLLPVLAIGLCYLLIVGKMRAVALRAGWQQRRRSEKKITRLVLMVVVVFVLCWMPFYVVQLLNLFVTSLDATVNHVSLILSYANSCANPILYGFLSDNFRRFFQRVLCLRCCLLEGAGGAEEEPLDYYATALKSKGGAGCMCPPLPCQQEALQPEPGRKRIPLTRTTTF
As to the kind of experiment: Radioligand binding panel (Table S1). Particulars: 10 μM T1-11, n 2.

The subject of a further data set is Phosphodiesterase PDE4. As to the kind of experiment: Radioligand binding panel (Table S1). Also on record: species or system human. As to conditions: 10 μM T1-11, n 2.
In another data set the test system is BDNF. Nature of the data set: Cortical BDNF transcript, quantitative RT-PCR. In kind it is in vivo. Particulars: R6/2 mice, 0.05 mg/ml in drinking water. On the procedure:
Total RNA was isolated from the cortex of the indicated mice using the TriReagent kit (Molecular Research Center, Cincinnati, OH, USA), treated with RNase-free DNase (RQ1; Promega) to remove potential contamination by genomic DNA, and transcribed into complementary (c)DNA using Superscript* II reverse transcriptase. A real-time quantitative PCR was performed using a TaqMan kit (PE Applied Biosystems, Foster City, CA, USA) on a TaqMan ABI 7700 Sequence Detection System (PE Applied Biosystems) using heat-activated TaqDNA polymerase (Amplitaq Gold; PE Applied Biosystems). The PCR mixtures were incubated at 50°C for 2 min and 95°C for 10 min, and then 40 PCR cycles were conducted (95°C for 15 s and 65°C for 1 min). The sequences of primers are listed below: for BDNF (the target gene), 5′-[…]-3′ and 5′-[…]-3′; and for GAPDH (the reference gene), 5′[…]-3′ and 5′-[…]-3′. Independent reverse-transcription PCRs were performed using the same cDNA for both the indicated target gene and reference gene (GAPDH). […] Data were analyzed using ABI 7700 operating software to determine the threshold cycle (CT) above the background for each reaction. The relative transcript amount of the target gene, which was calculated using standard curves of serial RNA dilutions, was normalized to that of GAPDH of the same RNA.

Data set [4] deals with T7, Corticotropin Releasing Factor, CRF1 (Homo sapiens, UniProt P34998).
T7 construct: purchased MDS Pharma Services Taiwan
T7 sequence (P34998 24-415): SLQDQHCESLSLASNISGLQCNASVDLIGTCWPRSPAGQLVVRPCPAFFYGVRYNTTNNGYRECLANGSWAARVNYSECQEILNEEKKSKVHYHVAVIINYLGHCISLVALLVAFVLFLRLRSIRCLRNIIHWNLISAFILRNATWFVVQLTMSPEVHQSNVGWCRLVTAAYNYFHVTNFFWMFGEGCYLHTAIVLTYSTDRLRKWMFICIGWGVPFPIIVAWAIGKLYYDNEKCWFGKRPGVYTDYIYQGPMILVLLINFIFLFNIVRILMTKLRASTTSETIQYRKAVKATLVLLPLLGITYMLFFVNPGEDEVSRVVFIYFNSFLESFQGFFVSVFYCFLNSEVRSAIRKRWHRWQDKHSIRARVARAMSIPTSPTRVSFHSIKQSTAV
As to the kind of experiment: Radioligand binding panel (Table S1). Particulars: 10 μM T1-11, n 2.

The target in data set [5] is T8, Serotonin (5-Hydroxytryptamine) 5-HT7 (Homo sapiens, UniProt P34969).
T8 construct: purchased MDS Pharma Services Taiwan
T8 sequence (P34969 whole entry): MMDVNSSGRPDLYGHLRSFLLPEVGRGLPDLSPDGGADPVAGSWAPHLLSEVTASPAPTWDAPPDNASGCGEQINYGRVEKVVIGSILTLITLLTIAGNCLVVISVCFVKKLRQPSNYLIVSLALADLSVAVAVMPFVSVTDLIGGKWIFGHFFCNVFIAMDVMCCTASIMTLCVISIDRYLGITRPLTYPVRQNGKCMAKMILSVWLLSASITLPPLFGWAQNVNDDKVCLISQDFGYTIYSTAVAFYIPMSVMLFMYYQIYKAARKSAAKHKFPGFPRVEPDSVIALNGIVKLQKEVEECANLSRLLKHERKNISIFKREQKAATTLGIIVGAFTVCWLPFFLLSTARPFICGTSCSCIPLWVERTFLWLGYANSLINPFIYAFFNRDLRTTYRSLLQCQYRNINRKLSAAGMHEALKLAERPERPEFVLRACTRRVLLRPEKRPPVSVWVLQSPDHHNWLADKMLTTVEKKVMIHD
As to the kind of experiment: Radioligand binding panel (Table S1). Particulars: 10 μM T1-11, n 2.

Data set [6] deals with R6/2 mice. As to the kind of experiment: Rotarod performance of R6/2 mice. In kind it is in vivo. The source says:
(§1) Male R6/2 mice and littermate controls were originally obtained from Jackson Laboratories (Bar Harbor, ME, USA), and mated to female control mice (B6CBAFI/J). Offspring were identified by a polymerase chain reaction (PCR) genotyping technique of genomic DNA extracted from tail tissues using primers located in the transgene (5′-[…]-3′ and 5′-[…]- AGGAG-3′) to ensure that the number of CAG repeats remained approximately 150. In total, 211 R6/2 transgenic mice were used in this study. Animals were housed at the Institute of Biomedical Sciences Animal Care Facility under a 12-h light/dark cycle. Body weights of mice were recorded once daily. Animal experiments were performed under protocols approved by the Academia Sinica Institutional Animal Care and Utilization Committee, Taipei, Taiwan.
Motor coordination was assessed using a rotarod apparatus (UGO BASILE, Comerio, Italy) at a constant speed (12 rpm) over the period of 2 min [75]. All mice were trained for 2 days at the age of 4 weeks to allow them to become acquainted with the rotarod apparatus. Animals were then tested three times per week from the ages of 4∼12 weeks. For each test, animals were placed in the apparatus before initiation of rotation. Latency to falling was automatically recorded. Each mouse was given three trials for a maximum of 2 min for each trial.
(In the rotarod test animals must keep their balance on a rotating rod.)

The next data set relates to Phosphodiesterase PDE1. Nature of the data set: Radioligand binding panel (Table S1). More on the design: species or system human. Particulars: 10 μM T1-11, n 2.
The target of a further data set is T9, Potassium Channel [KATP] (Cricetus cricetus, UniProt Q09427).
T9 construct: purchased MDS Pharma Services Taiwan
Nature of the data set: Radioligand binding panel (Table S1). Particulars: 10 μM T1-11, n 2. More on the design: species or system hamster. The protocol:
Radoligand binding assays were performed by MDS Pharma Services Taiwan (Taipei, Taiwan) using standard binding protocols. For the binding assay of the A2AR [67], membrane proteins collected from HEK293 cells overexpressing the human A2AR were incubated in reaction buffer [50 mM Tris-HCl (pH 7.4), 10 mM MgCl2, 1 mM EDTA, and 2 U/mL adenosine deaminase] containing ^3H-CGS21680 (50 nM) for 90 min at 25°C. Nonspecific binding was assessed in the presence of 50 µM adenosine- 5′-N-ethylcarboxamide. […] Nonspecific binding was assessed in the presence of 1 µM IB-MECA (Tocris Bioscience, Ellisville, MS, USA).

Data set [7] relates to R6/2 mice. Nature of the data set: Survival of R6/2 mice. In kind it is in vivo. As to conditions: 0.05 mg/ml in drinking water, n = 11.
Source text: as §1
Supplementary file pone.0020934.s005.tif: Figure S5 Effect of T1-11 on the shorten lifespan and enlarged ventricle of R6/2 mice. Animals were given the vehicle (1% DMSO; CON) or T1-11 (0.05 mg/ml)-containing drinking water from the age of 7 weeks. (A) Survival was assessed. Specific comparison to R6/2 mice treated with the vehicle (p = 0.306; Mantel-Cox test). (B) Five weeks after T1-11 treatment, 3D-lMRI was performed to determine the ventricle-to-brain ratio of the indicated animals as described. * p<0.05. (TIF) Click here for additional data file.

The subject of a further data set is Transporter, Monoamine. Nature of the data set: Radioligand binding panel (Table S1). Also on record: species or system rabbit. Particulars: 10 μM T1-11, n 2.
For data set [8], the system named is Imidazoline I2, Peripheral. As to the kind of experiment: Radioligand binding panel (Table S1). As to conditions: 10 μM T1-11, n 2. More on the design: species or system rat.
The target in a further data set is T10, Estrogen ERβ (Homo sapiens, UniProt Q92731).
T10 construct: purchased MDS Pharma Services Taiwan
As to the kind of experiment: Radioligand binding panel (Table S1). Particulars: 10 μM T1-11, n 2.

The next data set deals with T11, Interleukin IL-2 (Mus musculus, UniProt P01590+P16297+P34902).
T11 construct: purchased MDS Pharma Services Taiwan
T11 sequence (P01590 22-268): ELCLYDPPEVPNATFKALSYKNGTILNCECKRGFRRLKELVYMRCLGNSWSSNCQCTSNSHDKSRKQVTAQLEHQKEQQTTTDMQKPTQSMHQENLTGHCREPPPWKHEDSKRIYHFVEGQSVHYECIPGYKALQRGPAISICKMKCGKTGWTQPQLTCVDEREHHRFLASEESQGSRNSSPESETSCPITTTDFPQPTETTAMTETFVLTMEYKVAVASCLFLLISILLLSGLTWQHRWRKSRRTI
T11 sequence (P16297 27-539): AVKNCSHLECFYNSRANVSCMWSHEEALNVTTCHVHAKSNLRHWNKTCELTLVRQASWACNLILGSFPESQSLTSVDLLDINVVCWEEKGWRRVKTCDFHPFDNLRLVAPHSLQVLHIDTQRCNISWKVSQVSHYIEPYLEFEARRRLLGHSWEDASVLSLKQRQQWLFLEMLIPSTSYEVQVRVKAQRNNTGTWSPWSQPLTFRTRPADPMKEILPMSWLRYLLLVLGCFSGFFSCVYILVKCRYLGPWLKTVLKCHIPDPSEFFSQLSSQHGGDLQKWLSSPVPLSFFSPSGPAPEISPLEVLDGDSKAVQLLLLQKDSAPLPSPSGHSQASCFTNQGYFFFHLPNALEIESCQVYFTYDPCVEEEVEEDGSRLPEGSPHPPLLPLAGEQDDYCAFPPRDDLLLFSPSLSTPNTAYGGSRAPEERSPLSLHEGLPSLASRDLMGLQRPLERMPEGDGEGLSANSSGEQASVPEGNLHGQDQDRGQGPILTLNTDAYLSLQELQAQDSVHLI
T11 sequence (P34902 23-369): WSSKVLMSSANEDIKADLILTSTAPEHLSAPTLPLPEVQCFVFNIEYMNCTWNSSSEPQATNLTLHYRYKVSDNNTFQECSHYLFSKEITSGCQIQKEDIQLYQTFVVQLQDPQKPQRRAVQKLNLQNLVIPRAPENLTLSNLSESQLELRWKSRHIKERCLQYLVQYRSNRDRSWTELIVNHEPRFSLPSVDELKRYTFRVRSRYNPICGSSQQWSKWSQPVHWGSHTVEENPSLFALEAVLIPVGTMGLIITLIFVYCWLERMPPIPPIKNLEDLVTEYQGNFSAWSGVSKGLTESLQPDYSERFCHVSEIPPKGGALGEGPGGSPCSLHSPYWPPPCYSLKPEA
As to the kind of experiment: Radioligand binding panel (Table S1). As to conditions: 10 μM T1-11, n 2.

The test system of a further data set is Bombesin, Non-Selective. Nature of the data set: Radioligand binding panel (Table S1). Also on record: species or system rat. As to conditions: 10 μM T1-11, n 2.

Each structure is given as a SMILES string.

T2 sequence (P21462 whole entry): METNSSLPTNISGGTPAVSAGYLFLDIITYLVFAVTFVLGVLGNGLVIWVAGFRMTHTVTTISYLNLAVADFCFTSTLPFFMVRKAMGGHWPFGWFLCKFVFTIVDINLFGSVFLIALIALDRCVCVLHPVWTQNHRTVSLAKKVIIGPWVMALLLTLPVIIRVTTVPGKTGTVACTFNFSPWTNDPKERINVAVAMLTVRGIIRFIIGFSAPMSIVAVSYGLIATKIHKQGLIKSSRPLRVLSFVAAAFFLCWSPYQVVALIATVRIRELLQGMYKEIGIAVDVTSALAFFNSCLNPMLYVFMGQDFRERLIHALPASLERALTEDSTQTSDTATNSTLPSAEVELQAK
T1 sequence (Q12809 whole entry): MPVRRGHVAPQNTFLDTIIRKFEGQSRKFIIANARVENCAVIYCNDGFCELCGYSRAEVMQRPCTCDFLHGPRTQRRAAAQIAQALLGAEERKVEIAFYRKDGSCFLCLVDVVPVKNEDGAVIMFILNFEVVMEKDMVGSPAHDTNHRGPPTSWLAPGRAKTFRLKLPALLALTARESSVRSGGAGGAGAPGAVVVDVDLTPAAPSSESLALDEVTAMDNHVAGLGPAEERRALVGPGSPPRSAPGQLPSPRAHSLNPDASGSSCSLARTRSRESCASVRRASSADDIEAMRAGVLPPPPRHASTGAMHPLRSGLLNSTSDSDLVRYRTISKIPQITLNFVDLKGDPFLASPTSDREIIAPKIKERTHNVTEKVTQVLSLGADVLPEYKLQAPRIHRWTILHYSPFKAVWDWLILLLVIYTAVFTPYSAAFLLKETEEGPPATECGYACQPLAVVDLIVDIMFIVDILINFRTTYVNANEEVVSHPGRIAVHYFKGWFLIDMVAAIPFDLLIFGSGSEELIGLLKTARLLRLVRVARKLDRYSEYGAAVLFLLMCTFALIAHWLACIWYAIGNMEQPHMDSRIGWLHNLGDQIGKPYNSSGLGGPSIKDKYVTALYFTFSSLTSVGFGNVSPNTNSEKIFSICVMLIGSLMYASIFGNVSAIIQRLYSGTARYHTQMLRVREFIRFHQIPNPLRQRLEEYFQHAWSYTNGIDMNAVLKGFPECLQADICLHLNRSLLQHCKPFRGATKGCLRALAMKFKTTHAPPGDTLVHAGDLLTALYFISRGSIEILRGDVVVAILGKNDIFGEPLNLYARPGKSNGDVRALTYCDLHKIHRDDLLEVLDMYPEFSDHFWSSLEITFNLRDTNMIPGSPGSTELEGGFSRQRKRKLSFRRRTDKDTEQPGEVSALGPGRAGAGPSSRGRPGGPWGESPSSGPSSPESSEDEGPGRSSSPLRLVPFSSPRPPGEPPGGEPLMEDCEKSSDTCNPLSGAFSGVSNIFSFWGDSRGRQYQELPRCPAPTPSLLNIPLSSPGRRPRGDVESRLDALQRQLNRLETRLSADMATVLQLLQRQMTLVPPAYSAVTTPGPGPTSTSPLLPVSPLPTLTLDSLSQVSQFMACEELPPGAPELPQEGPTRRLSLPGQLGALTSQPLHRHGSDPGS

For the compound `OC[C@H]1O[C@@H](n2cnc3c(NCc4ccc(O)cc4)ncnc32)[C@H](O)[C@@H]1O` [T1-11, N ^6-(4-hydroxybenzyl)adenine riboside], the inhibition (usually the change of the read-out against control, counted positive when it falls) at 10 µM on hERG potassium channel was -2%; in data set [1] it was 5%; on Lipoxygenase 5-LO it was 25%; in data set [2] it was 2%; at Neuromedin U NMU2, 5%; at Somatostatin sst4, 5%. Also, the inhibition at 10 µM is 1% in [4]; 2% in data set [5]; 6% at Potassium Channel [KATP]; 40% at Estrogen ERβ; 0% on Interleukin IL-2. The % Inhibition (as a rule, the relative decrease from the control value, in per cent) in data set [3] is on record as -4%; in the data set on Phosphodiesterase PDE4, 0%; with Phosphodiesterase PDE1, 17%; in the data set on Transporter, Monoamine, -6%; in data set [8] it was 10%; with Bombesin, Non-Selective it was 6%. The “Cortical BDNF” value in the data set on BDNF is given as “contained more cortical BDNF than R6/2 mice that received no treatment”. In addition, the “Motor coordination (rotarod performance)” value with R6/2 mice [6] (0.05 mg/ml in drinking water from the age of 7 weeks) was “counteracted the progressive deterioration in motor coordination”. In addition, the “Motor deterioration (rotarod performance)” value with R6/2 mice [6] (subcutaneous Alzet minipump, 125 µg/mouse/day) is “improved motor deterioration”. Moreover, the Mean survival time with R6/2 mice [7] turned out to be 103.3 ± 3.9 days.

Source of the values: article PMC3119665, “A New Drug Design Targeting the Adenosinergic System for Huntington's Disease” (PLoS ONE, 2011).
